# Structures can show the parent of a compound that is named as a salt.
# Target: HCV NS5b RNA dependent RNA polymerase (Hepatitis C virus genotype 1a, UniProt P27958)
# Experiment: Inhibition of HCV NS5b RNA dependent RNA polymerase activity (incorporation of 3H labeled GTP, scintillation proximity)
# Type: biochemical
# Conditions: HCV NS5b polymerase assay; read-out: concentration for 50% inhibition (inhibitory activity, Table 2)
# Experimental: Compounds of the present invention are evaluated for inhibition of HCV NS5b RNA dependent RNA polymerase activity in assays comprised of a suitable buffer (e.g. 20 mM Tris-HCl pH 7.6), primed or unprimed RNA templates, GTP, ATP, CTP, and UTP, MnCl2 or MgCl2, and reducing agent such as 10 mM dithiothreitol or 2-mercaptoethanol. The assay buffer may contain salts such as ammonium acetate, KCl, or NaCl, and nonionic or zwitterionic detergents such as Tween or CHAPS. The incorporation of nucleotides into the complementary RNA strand may be monitored by the incorporation of radiolabeled NTP (e.g. ^3H labeled GTP). Suitable RNA templates for de novo initiation in the presence of 20-50 μM GTP or ATP are the homopolymers poly rC and poly rU, respectively. Heteropolymer RNA templates with 1-3 cytidine (C) bases or 1-3 uridine (U) bases at the 3′ terminus of the template may also be used for de novo initiation. Primed RNA templates such as poly rC primed with oligo rG or oligo dG, and poly rA primed with oligo rU may also be used to detect polymerase activity. The primers may be any length greater than 10 bases. A biotin residue may be added to the 5′ end of the template or the 5′ end of the primer to capture the template and the newly synthesized, complementary strand on avidin coated spheres. One embodiment of this technology consists of a mixture of NS5b polymerase, a poly rC RNA template primed with 5′ biotinylated oligo rG, 20 mM Tris HCl pH 7.6, 100 mM ammonium acetate, 10 mM dithiothreitol, 2 mM CHAPS, 1 mM MgCl2, and 150-200 nM ^3H labeled GTP. Test compounds (inhibitors) may be incorporated in the reaction mixture with up to 10% DMSO. The reaction is run for various times (1-180 minutes) at 22-37° C., and stopped by the addition of 10-140 mM EDTA. Scintillation Proximity Assay avidin-coated beads (Amersham Pharmacia Biotech) are added to capture the ds RNA product; or the reaction mixtures may be transferred to avidin coated Flash Plates (Perkin Elmer Life Sciences). The incorporation of radiolabeled GTP into the complementary strand is measured in 96, 384, or 1536 well plates in scintillation counters such as the Wallac Microbeta and Packard TopCount.
# HCV NS5b RNA dependent RNA polymerase, sequence (P27958 2421-3011): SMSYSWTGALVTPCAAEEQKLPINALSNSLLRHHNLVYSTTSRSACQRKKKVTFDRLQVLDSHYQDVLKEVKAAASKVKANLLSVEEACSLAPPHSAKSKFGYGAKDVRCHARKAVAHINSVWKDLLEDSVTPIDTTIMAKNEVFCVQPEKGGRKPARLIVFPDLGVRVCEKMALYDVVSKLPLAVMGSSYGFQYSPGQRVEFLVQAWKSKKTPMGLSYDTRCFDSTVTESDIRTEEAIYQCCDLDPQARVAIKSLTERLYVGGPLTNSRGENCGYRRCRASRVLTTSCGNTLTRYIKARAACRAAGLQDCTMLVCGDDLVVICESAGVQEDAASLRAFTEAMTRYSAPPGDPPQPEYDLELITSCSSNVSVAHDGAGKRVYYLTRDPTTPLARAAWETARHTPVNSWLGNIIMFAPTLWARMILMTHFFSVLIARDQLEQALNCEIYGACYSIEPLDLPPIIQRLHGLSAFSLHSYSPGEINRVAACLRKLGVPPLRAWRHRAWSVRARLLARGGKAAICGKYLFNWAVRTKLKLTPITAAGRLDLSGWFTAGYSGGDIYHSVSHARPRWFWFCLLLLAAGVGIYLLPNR
row,Molecule,IC50 [µM]
1,5-(aminomethyl)-2-{[2-[(2-carboxyphenyl)thio]-5-(trifluoromethyl)phenyl]amino}benzoic acid [xii],1 to 20
2,"N#Cc1ccc(Nc2ccccc2Nc2ccccc2C(=O)O)c(C(=O)O)c1 [li, 2-({2-[(2-carboxyphenyl)amino]phenyl}amino)-5-cyanobenzoic acid]",1 to 20
3,"O=C(O)c1ccccc1Nc1ccc(F)cc1Nc1ccccc1C(=O)O [lii, 2-({2-[(2-carboxyphenyl)amino]-4-fluorophenyl}amino)benzoic acid]",1 to 20
4,"O=C(O)c1ccccc1Nc1ccccc1Nc1cc(F)ccc1C(=O)O [lix, 2-({2-[(2-carboxyphenyl)amino]phenyl}amino)-4-fluorobenzoic acid]",> 20
5,"O=C(O)c1ccccc1Nc1ccccc1Nc1cc(F)c(F)cc1C(=O)O [lvii, 2-({2-[(2-carboxyphenyl)amino]phenyl}amino)-4,5-difluorobenzoic acid]",1 to 20
6,"COc1ccc(Nc2ccccc2Nc2ccccc2C(=O)O)c(C(=O)O)c1 [lx, 2-({2-[(2-carboxyphenyl)amino]phenyl}amino)-5-methoxybenzoic acid]",> 20
7,"Cc1ccc(Nc2ccccc2C(=O)O)c(Nc2ccccc2C(=O)O)c1 [xl, 2-({2-[(2-carboxyphenyl)amino]-4-methylphenyl}amino)benzoic acid]",1 to 20
8,"NCc1ccc(Nc2ccc(C(F)(F)F)cc2Nc2ccccc2C(=O)O)c(C(=O)O)c1 [xxiv, 5-(aminomethyl)-2-{[2-[(2-carboxyphenyl)amino]-4-(trifluoromethyl)phenyl]amino}benzoic acid hydrochloride]",< 1
9,"NCCc1ccc(Nc2ccc(C(F)(F)F)cc2Nc2ccccc2C(=O)O)c(C(=O)O)c1 [xxvii, 5-(2-aminoethyl)-2-{[2-[(2-carboxyphenyl)amino]-4-(trifluoromethyl)phenyl]amino}benzoic acid hydrochloride]",< 1
10,"O=C(O)c1ccccc1Nc1ccc(C(F)(F)F)cc1Nc1ccc(CN2CCCC2)cc1C(=O)O [xxx, 2-{[2-[(2-carboxyphenyl)amino]-5-(trifluoromethyl)phenyl]amino}-5-(pyrrolidin-1-ylmethyl)benzoic acid]",1 to 20
11,"O=C(O)c1ccccc1Nc1ccc(C(F)(F)F)cc1Nc1ccccc1C(=O)O [xxxi, 2-{[2-[(2-carboxyphenyl)amino]-4-(trifluoromethyl)phenyl]amino}benzoic acid]",< 1
12,"NCCc1ccc(Nc2cc(C(F)(F)F)ccc2Nc2ccccc2C(=O)O)c(C(=O)O)c1 [xxxviii, 5-(2-aminoethyl)-2-{[2-[(2-carboxyphenyl)amino]-5-(trifluoromethyl)phenyl]amino}benzoic acid hydrochloride]",< 1

# Further lines, results first:
row,IC50 [µM],Molecule
1,1 to 20,"c1ccc(Nc2ccccc2-c2nnn[nH]2)c(Nc2ccccc2-c2nnn[nH]2)c1 [lv, N,N′-bis[2-(1H-tetrazol-5-yl)phenyl]benzene-1,2-diamine, disodium salt]"
2,> 20,O=C(O)c1ccccc1Nc1ccccc1Nc1ccccc1C(=O)O [lviii]
3,1 to 20,"O=C(O)c1ccccc1Nc1cc(C(F)(F)F)ccc1Oc1ccccc1C(=O)O [lxv, 2-{[2-(2-carboxyphenoxy)-5-(trifluoromethyl)phenyl]amino}benzoic acid]"
4,1 to 20,"N#Cc1ccc(Nc2ccc(C(F)(F)F)cc2Nc2ccccc2C(=O)O)c(C(=O)O)c1 [xvi, 2-{[2-[(2-carboxyphenyl)amino]-4-(trifluoromethyl)phenyl]amino}-5-cyanobenzoic acid]"
5,> 20,"N[C@@H](Cc1ccccc1)C(=O)NCc1ccc(Nc2cc(C(F)(F)F)ccc2Nc2ccccc2C(=O)O)c(C(=O)O)c1 [xviii, N-(3-carboxy-4-{[2-[(2-carboxyphenyl)amino]-5-(trifluoromethyl)phenyl]amino}benzyl)-L-phenylalaninamide chloride]"
6,> 20,"NCc1ccc(Nc2cc(C(F)(F)F)ccc2Oc2ccccc2C(=O)O)c(C(=O)O)c1 [xxv, 5-(aminomethyl)-2-{[2-(2-carboxyphenoxy)-5-(trifluoromethyl)phenyl]amino}benzoic acid hydrochloride]"

# — US20040142993A1, “Inhibitors of HCV NS5B polymerase” (priority 2002, published 2004)
